One test has as its target T1, human PD-1/PD-L1 binding (Homo sapiens, UniProt Q9NZQ7).
T1 construct: PD-L1-His protein (19 to 238 amino acids) (Abcam #ab167713); purchased Abcam (PD-L1-His); R&D (PD-1-Fc) ab167713; 1086-PD
The test can be described thus: Inhibition of human PD-1/PD-L1 binding (TR-FRET/HTRF). The note with it: TR-FRET, PD-L1-His and PD-1-Fc; read-out: PD-1/PD-L1 binding IC50. The text has this:
Test Embodiment 1: Test of Inhibitory Effect of the Compounds of the Present Disclosure on Human PD-1/PD-L1 Binding
Experimental purpose: The purpose of this test embodiment was to measure the inhibitory activity of the compounds on human PD-1/PD-L1 binding.
Experimental reagents: Binding Domain diluent buffer was purchased from Cisbio Company, Cat. No.: 62DLBDDF; MAb Anti-6HIS Eu cryptate Gold was purchased from Cisbio Company with the article number of 61HI2KLA; PAb Anti Human IgG-XL665 was purchased from Cisbio Company with the article number of 61HFCXLB; PD-L1-His protein was purchased from Abcam Company with the article number of ab167713; PD-1-Fc protein was purchased from R&D Company with the article number of 1086-PD; Detection buffer was purchased from Cisbio Company with the article number of 62SDBRDD; 384-well plate was purchased from PerkinElmer Company with the article number of 6007290.
Experimental method: In order to test the inhibitory activity of the compounds on human PD-1/PD-L1 binding, the method of time-resolved fluorescence resonance energy transfer (TR-FRET) was used in this experiment to test the inhibition of the compounds on human PD-1/PD-L1 binding, and the half inhibitory concentration IC50 of inhibitory activity of the compounds on human PD-1/PD-L1 binding was obtained.
This experiment was performed in a 384-well plate with a total reaction volume of 20 μL. Compounds were diluted to different concentrations (10 μM or 1 μM starting, 3-fold dilution, 11 doses) using assay buffer Binding Domain diluent buffer (Cisbio #62DLBDDF), then PD-L1-His protein (19 to 238 amino acids) (Abcam #ab167713) was diluted to 10 nM with assay buffer, and PD-1-Fc protein (25 to 167 amino acids) (R&D #1086-PD) was diluted to 20 nM with assay buffer; the compound, PD-L1 protein and PD-1 protein were added to a 384-well plate respectively, and the total volume was 10 μL, then centrifuged at 1000 rpm for 1 minute to mix well, and incubated for 60 minutes at room temperature. Then 10 μL of a mixed solution of MAb Anti-6HIS Eu cryptate Gold (Cisbio #61HI2KLA) and PAb Anti Human IgG-XL665 (Cisbio #61HFCXLB) diluted by HTRF Detection buffer was added to each well, and centrifuged at 1000 rpm for 1 minute to mix well. The reaction was carried out at room temperature for 3 hours or at 4° C. overnight, then a microplate reader (BioTek Synergy H1) was put into for reading; the excitation wavelength was 340 nm, and the emission wavelengths were 620 nm and 665 nm.
The ratio of fluorescence readings at 620 nm and 665 nm (665 nm/620 nm) was calculated, and the inhibition rate was calculated.
In general terms: Time-resolved FRET reads energy transfer from a long-lived donor to a nearby acceptor.

Test [1] has as its target T2, PD-L1 protein on the surface of MC38-hPDL1 tumor cells (Homo sapiens, UniProt Q9NZQ7).
T2 construct: expressed in transfected cells; host or cells: MC38-hPDL1 (mouse colon cancer cells)
The test can be described thus: Induction of endocytosis of PD-L1 on the surface of tumor cells (flow cytometry). Format: cell-based. To be noted: 16 hours incubation; for Emax: MC38-hPDL1 cells, read-out: MC38 maximum endocytosis rate; for IC50: inducing endocytosis of PD-L1, MC38-hPDL1 cells, read-out: MC38 IC50. The text has this: Test Embodiment 2. Test of the Activity of Compounds of the Present Disclosure on Inducing the Endocytosis of PD-L1 Protein on the Surface of Tumor Cells
Experimental purpose: The purpose of this test embodiment was to test the activity of the compound on inducing the endocytosis of PD-L1 on the surface of tumor cells.
Experimental method: In order to test the activity of the compound on inducing the endocytosis of PD-L1, in this experiment, the activity of the compound on inducing the endocytosis of PD-L1 was tested by detecting the change degree of PD-L1 on the tumor cell surface with fluorescently labeled anti-PD-L1 antibody, and the IC50 of activity of the compound on inducing the endocytosis of PD-L1 was obtained.
The mouse colon cancer cells MC38-hPDL1 with high expression of hPD-L1 were collected, and adjusted to a suitable density and plated in a 24-well plate, and placed in a 37° C., 5% CO2 incubator to adhere overnight. Compounds were prepared into different concentrations by medium and added to a 24-well plate, and a vehicle control well was set up. After the cells were incubated in a 37° C., 5% CO2 incubator for 16 hours, the 24-well plate was taken out, and MC38-hPDL1 cells with different treatments in the plate were collected. After the cells were washed once with FACS buffer (PBS containing 0.5% BSA), and the cells were prepared to an appropriate density with FACS buffer. PE Mouse Anti-Human CD274 antibody (BD Pharmingen #557924) was added, and the cells were shaken at room temperature and incubated for 30 minutes without light, then the cells were washed twice with FACS buffer, resuspended in 100 μL of PBS, and a flow cytometer was used to detect the fluorescent signal on the cell surface, and the isotype control was set as a negative control.
The endocytosis rate of the compounds was calculated from the fluorescence signals of different treatment groups, and the compound concentration and endocytosis rate were fitted by nonlinear regression using GraphPad Prism software, and IC50 values were obtained, as shown in Table 2.
On the technique in general: In flow cytometry, cells or beads pass a laser one at a time.

T1 sequence (Q9NZQ7 19-238): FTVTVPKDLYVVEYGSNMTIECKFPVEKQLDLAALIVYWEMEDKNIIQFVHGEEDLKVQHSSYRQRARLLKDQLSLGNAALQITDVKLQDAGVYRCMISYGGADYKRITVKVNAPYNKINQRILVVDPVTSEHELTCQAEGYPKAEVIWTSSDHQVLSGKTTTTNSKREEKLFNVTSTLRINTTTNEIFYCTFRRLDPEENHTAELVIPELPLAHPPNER
T2 sequence (Q9NZQ7 19-290): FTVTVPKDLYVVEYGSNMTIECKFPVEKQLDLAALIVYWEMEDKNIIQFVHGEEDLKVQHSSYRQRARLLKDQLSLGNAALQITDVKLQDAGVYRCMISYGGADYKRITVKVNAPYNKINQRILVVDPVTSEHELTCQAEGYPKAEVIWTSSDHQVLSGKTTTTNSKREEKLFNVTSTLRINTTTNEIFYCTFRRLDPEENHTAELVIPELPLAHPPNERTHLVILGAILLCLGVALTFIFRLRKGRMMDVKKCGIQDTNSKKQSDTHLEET

In the case of `COc1cc(-c2cccc(-c3cccc(NC(=O)c4nc5c(n4C)CCN(C)C5)c3Cl)c2Cl)ncc1CNC1CCOCC1` [Embodiment 57, N-(2,2′-Dichloro-3′-(4-methoxy-5-(((tetrahydro-2H-pyran-4-yl)amino)methyl)pyridin-2-yl)-[1,1′-biphenyl]-3-yl)-1,5-dimethyl-4,5,6,7-tetrahydro-1H-imidazo[4,5-c]pyridine-2-carboxamide], the IC50 on human PD-1/PD-L1 binding stood at 3 nM. The same measure, in the same setting: with `COc1cc(-c2cccc(-c3cccc(NC(=O)c4nc5c(n4C)CCN(C)C5)c3Cl)c2C)ncc1CN1CC[C@@H](F)C1` [Embodiment 60, (R)—N-(2-Chloro-3′-(5-((3-fluoropyrrolidin-1-yl)methyl)-4-methoxypyridin-2-yl)-2′-methyl-[1,1′-biphenyl]-3-yl)-1,5-dimethyl-4,5,6,7-tetrahydro-1H-imidazo[4,5-c]pyridine-2-carboxamide] the figure was 6.9 nM.

As to `COc1nc(-c2cccc(-c3cccc(NC(=O)c4nc5c(n4C)CCN(C)C5)c3Cl)c2Cl)ccc1CN1CCN(S(C)(=O)=O)CC1` [Embodiment 204, N-(2,2′-Dichloro-3′-(6-methoxy-5-((4-(methylsulfonyl)piperazin-1-yl)methyl)pyridin-2-yl)-[1,1′-biphenyl]-3-yl)-1,5-dimethyl-4,5,6,7-tetrahydro-1H-imidazo[4,5-c]pyridine-2-carboxamide], in test [1], the Emax was 89%. In the case of `Cc1nccc(NCc2ccc(C(=O)Nc3cccc(-c4cccc(NC(=O)c5nc6c(n5C)CCN(C)C6)c4Cl)c3C)nc2)c1F` [Embodiment 105, N-(2-Chloro-3′-(5-(((3-fluoro-2-methylpyridin-4-yl)amino)methyl)picolinamido)-2′-methyl-[1,1′-biphenyl]-3-yl)-1,5-dimethyl-4,5,6,7-tetrahydro-1H-imidazo[4,5-c]pyridine-2-carboxamide], the IC50 at human PD-1/PD-L1 binding turned out to be 8.5 nM. The same measure, in the same setting: the result for `COc1cc(C(=O)Nc2cccc(-c3cccc(NC(=O)c4nc5c(n4C)CCN(C)C5)c3Cl)c2C)ncc1C(C)(C)O` [Embodiment 50, N-(2-Chloro-3′-(5-(2-hydroxypropan-2-yl)-4-methoxypicolinamido)-2′-methyl-[1,1′-biphenyl]-3-yl)-1,5-dimethyl-4,5,6,7-tetrahydro-1H-imidazo[4,5-c]pyridine-2-carboxamide] reads 9 nM. Consider `COc1cc(C(=O)Nc2cccc(-c3cccc(NC(=O)c4nc5c(n4C)CCN(C)C5)c3Cl)c2C)ncc1CN1CC[C@@H](F)C1` [Embodiment 25, (R)—N-(2-Chloro-3′-(5-((3-fluoropyrrolidin-1-yl)methyl)-4-methoxypicolinamido)-2′-methyl-[1,1′-biphenyl]-3-yl)-1,5-dimethyl-4,5,6,7-tetrahydro-1H-imidazo[4,5-c]pyridine-2-carboxamide], for which, in test [1], the Emax is 95% and the IC50 turned out to be 0.9 nM. Consider `COc1cc(CN2CC(F)C2)cnc1C(=O)Nc1cccc(-c2cccc(NC(=O)c3nc4c(n3C)CCN(C)C4)c2Cl)c1C` [Embodiment 108, N-(2-Chloro-3′-(5-((3-fluoroazetidin-1-yl)methyl)-3-methoxypicolinamido)-2′-methyl-[1,1′-biphenyl]-3-yl)-1,5-dimethyl-4,5,6,7-tetrahydro-1H-imidazo[4,5-c]pyridine-2-carboxamide], for which the IC50 at human PD-1/PD-L1 binding was 8.4 nM.

Consider `COc1cc(C(=O)Nc2cccc(-c3cccc(NC(=O)c4nc5c(n4C)CCN(C)C5)c3Cl)c2C)ncc1CNCc1ncccc1OC` [Embodiment 13, N-(2-Chloro-3′-(4-methoxy-5-((((3-methoxypyridin-2-yl)methyl)amino)methyl)picolinamido)-2′-methyl-[1,1′-biphenyl]-3-yl)-1,5-dimethyl-4,5,6,7-tetrahydro-1H-imidazo[4,5-c]pyridine-2-carboxamide], for which, in test [1], the Emax was 87% and the IC50 turned out to be 6.6 nM. For the compound `COc1cc(-c2cccc(-c3cccc(NC(=O)c4nc5c(n4C)CCN(C)C5)c3Cl)c2Cl)cnc1CN1CC(F)C1` [Embodiment 163, N-(2,2′-Dichloro-3′-(6-((3-fluoroazetidin-1-yl)methyl)-5-methoxypyridin-3-yl)-[1,1′-biphenyl]-3-yl)-1,5-dimethyl-4,5,6,7-tetrahydro-1H-imidazo[4,5-c]pyridine-2-carboxamide], the IC50 at human PD-1/PD-L1 binding came out at 7.7 nM. Turning to `COc1nc(-c2cccc(-c3cccc(NC(=O)c4nc5c(n4C)CCN(C)C5)c3Cl)c2Cl)ccc1CN1CCN(C(=O)C(F)(F)F)CC1` [Embodiment 202, N-(2,2′-Dichloro-3′-(6-methoxy-5-((4-(2,2,2-trifluoroacetyl)piperazin-1-yl)methyl)pyridin-2-yl)-[1,1′-biphenyl]-3-yl)-1,5-dimethyl-4,5,6,7-tetrahydro-1H-imidazo[4,5-c]pyridine-2-carboxamide], the Emax in test [1] was 89%. As to `COc1cc(NCc2cnc(C(=O)Nc3cccc(-c4cccc(NC(=O)c5nc6c(n5C)CCN(C)C6)c4Cl)c3C)cc2C2CC2)ccn1` [Embodiment 44, N-(2-Chloro-3′-(4-cyclopropyl-5-(((2-methoxypyridin-4-yl)amino)methyl)picolinamido)-2′-methyl-[1,1′-biphenyl]-3-yl)-1,5-dimethyl-4,5,6,7-tetrahydro-1H-imidazo[4,5-c]pyridine-2-carboxamide], in test [1], the Emax turned out to be 88% and the IC50 was determined as 4.2 nM.

For the compound `COc1cc(NCc2cnc(C(=O)Nc3cccc(-c4cccc(NC(=O)c5nc6c(n5C)CCN(C(C)C)C6)c4Cl)c3C)cc2OC)ccn1` [Embodiment 70, N-(2-Chloro-3′-(4-methoxy-5-(((2-methoxypyridin-4-yl)amino)methyl)picolinamido)-2′-methyl-[1,1′-biphenyl]-3-yl)-5-isopropyl-1-methyl-4,5,6,7-tetrahydro-1H-imidazo[4,5-c]pyridine-2-carboxamide], in test [1], the Emax was determined as 81% and the IC50 turned out to be 4 nM. For `COc1ccnc(NCc2cnc(C(=O)Nc3cccc(-c4cccc(NC(=O)c5nc6c(n5C)CCN(C)C6)c4Cl)c3C)cc2OC)c1` [Embodiment 12, N-(2-Chloro-3′-(4-methoxy-5-(((4-methoxypyridin-2-yl)amino)methyl)picolinamido)-2′-methyl-[1,1′-biphenyl]-3-yl)-1,5-dimethyl-4,5,6,7-tetrahydro-1H-imidazo[4,5-c]pyridine-2-carboxamide], in that order: 84% and 6.5 nM. For `COc1cc(C(=O)Nc2cccc(-c3cccc(NC(=O)c4nc5c(n4C)CCN(C)C5)c3Cl)c2C)ncc1CNCC1(F)CCOCC1` [Embodiment 19, N-(2-Chloro-3′-(5-((((4-fluorotetrahydro-2H-pyran-4-yl)methyl)amino)methyl)-4-methoxypicolinamido)-2′-methyl-[1,1′-biphenyl]-3-yl)-1,5-dimethyl-4,5,6,7-tetrahydro-1H-imidazo[4,5-c]pyridine-2-carboxamide], in that order: 85% and 7 nM.

The values are drawn from US20230105212A1, “BIPHENYL DERIVATIVE INHIBITOR, PREPARATION METHOD THEREFOR AND USE THEREOF” (SHANGHAI HANSOH BIOMEDICAL CO., LTD., priority 2020, published 2023).
